Data reported in US20230128322A1, “SYK KINASE INHIBITORS AS TREATMENT FOR MALARIA” (Purdue Research Foundation, priority 2012, published 2023).
Entries after “also recorded” stand apart in the source; their conditions may differ. Where a name gives a salt, the structure may show the parent alone.

Legend:
[1] = cited from earlier work
[2] = test system: P falciparum strain Palo Alto; experiment: parasitemia / re-infection in P. falciparum-infected RBC cultures; format: cell-based, Plasmodium falciparum; conditions: for parasitemia level as % of the initial level: added 24 hours after start of culture, 72 hours after treatment; for effect on level of parasitemia during second cycle (re-infection): all concentrations examined (0.1-10 μM); for effect on level of parasitemia during first parasite cycle: first 48 hours, inhibitor added 24 hours after start
Procedure: Inhibition of Syk in RBCs. Infected and non-infected RBCs were treated with Syk kinase inhibitor 11 (FIG. 2) at different concentrations and at different times after the start of the cultures. Cultivation of P. falciparum-infected RBCs. Freshly drawn blood (Rh+) from healthy adults of both sexes was used following informed consent in all studies. […] To assess total parasitemia and the relative numbers of ring and trophozoite stage cells, slides were prepared from cultures at the indicated times and stained with Diff-Quik reagent prior to analysis. 1000 cells were then scored by microscopic analysis of the cell staining patterns. To evaluate the potential of Syk kinase inhibitors as a therapy for treating malaria, the effect of Syk kinase inhibitors on preventing re-infection of additional erythrocytes was evaluated. Based on the hypothesis that destabilization of the RBCM is beneficial to the parasite during egress, blocking RBCM destabilization by inhibiting Syk-mediated tyrosine phosphorylation of band 3 may result in a reduction in the spread of infected cells. To test this, erythrocyte cultures were infected with P. falciparum and then treated 24 hours later with the Syk kinase inhibitor (0, 0.1, 1, and 10 uM concentrations) (FIG. 2). In this set of experiments Syk kinase inhibitors have been added 24 hours after the start of the parasite cultures. Data are means of 2 or 4 experiments with standard deviations. The data presented represents the mean of two to four experiments. The level of parasitemia was then calculated at 24, 48, 72 and 96 hours after addition of the Syk kinase inhibitor. The efficiency of the Syk kinase inhibitor at different stages of the parasite development cycle was examined. […] Growth inhibition was calculated as a % re-invasion rate relative to untreated cultures. […] However, when infected cultures are treated at 24 hours after the initial infection, nearly 100% of parasite re-infection is inhibited. This time point was confirmed in a flow cytometric analysis where the number of merozoites released from isolated schizonts, were measured with or without Syk kinase inhibitor treatment. […] This is consistent with our proposed mechanism of the Syk kinase inhibitor blocking the necessary destabilization of the erythrocyte cell membrane required for egress. Inhibition of Syk in RBCs. Infected and non-infected RBCs were treated with Syk kinase inhibitor IV (FIG. 6) at different concentrations and at different times after the start of the cultures. Cultivation of P. falciparum-infected RBCs. Freshly drawn blood (Rh+) from healthy adults of both sexes was used following informed consent in all studies. […] To assess total parasitemia and the relative numbers of ring and trophozoite stage cells, slides were prepared from cultures at the indicated times and stained with Diff-Quik reagent prior to analysis, 1000 cells were then scored by microscopic analysis of the cell staining patterns. To test this, erythrocyte cultures were infected with P. falciparum and then treated 24 hours later with the Syk kinase inhibitor (0, 0.1, and 10 uM concentrations) (FIG. 6). The data presented represents the mean of two to four experiments. The level of parasitemia was then calculated at 24, 48, 72 and 96 hours after addition of the Syk kinase inhibitor.

[3] = cited from earlier work; remark: listed apart in the source
[4] = test system: malaria infected RBCs; experiment: ex vivo parasitemia in blood from malaria infected Vietnamese patients (PCR); format: cell-based, human; conditions: 48 hours of incubation, various concentrations
[5] = test system: band 3; experiment: orthovanadate-induced band 3 tyrosine phosphorylation in erythrocytes; format: cell-based, human; conditions: 10 uM, 1 hour, then 2 mM orthovanadate
[6] = test system: P. falciparum Dd2-infected erythrocytes; experiment: parasitemia of synchronous P. falciparum Dd2 cultures
[7] = test system: parasite in RBCs; experiment: microscopy of Giemsa stained blood smears of treated infected RBCs; format: cell-based
Procedure: FIGS. 9A-9E are microscopy photographs of standard blood smears. Smears were prepared on glass slides, fixed with 100% methanol, and stained in 10% Giemsa modified stain diluted in PBS for 10 minutes at room temperature.
FIGS. 10A-D are microscopy photographs of standard blood smears. Smears were prepared on glass slides, fixed with 100% methanol, and stained in 10% Giemsa modified stain diluted in PBS for 10 minutes at room temperature.
FIGS. 11A-C are microscopy photographs of standard blood smears. Smears were prepared on glass slides, fixed with 100% methanol, and stained in 10% Giemsa modified stain diluted in PBS for 10 minutes at room temperature.

[8] = test system: band 3; experiment: band 3 tyrosine phosphorylation in parasite cultures (Western blot); format: cell-based, human; conditions: 10 μM added at 12 hours; at 48 hours post infection
Procedure: Immunoblot Analysis. […] The nitrocellulose membranes were then probed using either fluorescein-5'-maleimide (0.25 mg/ml) (Pierce) or anti-phosphotyrosine antibody (Santa Cruz, Calif.) and anti-Syk (Santa Cruz, Calif.) antibodies and with anti-band 3 (Sigma Aldrich). The blots were then analyzed using an 800 nm laser scanner (Odyssey, Licor, USA). […] In this set of experiments, Syk kinase inhibitors were added 12 hours after the start of the parasite cultures. The content of band 3 was measured by western blotting. The percent of band 3 phosphorylation was also measured. […] Band 3 phosphorylation levels have been normalized for the band 3 content ([…] blot). The expectation is that band 3 tyrosine phosphorylation would also be diminished in the Syk kinase inhibitor treated cultures. This is indeed the case. The % of band tyrosine phosphorylation was measured via Western blotting with an anti-phosphotyrosine antibody. […] The cultures were then normalized to the vandate induced level of phosphorylation. […] This is consistent with the hypothesis that just prior to egress the parasite would phosphorylate band 3, disrupt its interaction with ankyrin and result in a destabilized membrane that is more susceptible to breech as required during egress.

[9] = test system: P. falciparum-infected RBCs; experiment: vesiculation (microparticle release) of infected RBCs; format: cell-based, human; conditions: 10 μM, added 12 hours after infection
Procedure: Micro-vesicle Quantification. Infected and non-infected RBCs were washed 3× in RPMI 1640-HEPES medium and then resuspended at 10% hematocrit in the same medium containing a protease inhibitor cocktail (Sigma-Aldrich). […] Cells were then centrifuged at 2000×g to pellet the RBCs followed by a centrifugation step at 20,000×g for 10 minutes to pellet the RBC membranes. RBC vesicles present in the supernatant were labeled with anti-glycophorin A antibodies or with eosine-maleimide for labeling band 3, and quantified using a FACSCalibur cytometer (BD Biosciences) and the Cell Quest analysis software (BD Biosciences). Vesicles were selected using forward and side light scatter (FSC and SSC signals set to logarithmic amplification). A total of 40,000 events were analyzed. The amount of MPs released by infected RBCs was also measured. […] MPs were isolated from the supernatant by differential centrifugation (as in the INODs paper) and their amount was estimated measuring their band 3 content ([…] blots). Data are mean of 2 experiments with SD (in the second experiment we could measure only the ast times). […] To measure vesiculation, microparticles were isolated from the culture supernatants and quantified based on their band 3 content (determined by Western blotting) [Pantaleo, Free Radic Biol Med 2012, 52: 527-536].

[10] = test system: artemisinin resistant parasites in malaria infected blood; experiment: ex vivo parasite growth in artemisinin resistant blood of patient 4 (PCR); format: cell-based, human
Procedure: A blood sample was acquired from patient 4 prior to treatment with artemisinin and 13 day after treatment with artemisinin. […] These parasites are considered artemisinin resistant since there is a persistent parasitemia in the patient, even after artemisinin therapy.
Upon arrival of each sample, malaria infected RBCs were separated from plasma and leukocytes by three washes in wash medium (RPMI 1640 medium containing 2 mM glutamine, 24 mM NaHCO, 25 mM Hepes, 20 mM glucose, and 32 mg/m gentamicin, pH 6.80).
Smears of infected erythrocytes were obtained to assess initial parasitemia. Slides were fixed in 100% methanol and stained with 1/10 dilution of Giemsa solution, incubated for 10 min at room temperature, washed with water, dried, and observed under oil immersion lens (100×) for microscopic analysis. An aliquot was also saved for PCR analysis.
Malaria infected erythrocytes were re-suspended at 2% hematocrit in growth medium consisting of RPMI 1640 supplemented with 2 mM glutamine, 24 mM NaHCO, 25 mM Hepes, 20 mM glucose, and […] gentamicin, pH 6.80 and 10% heat inactivated human serum. Infected blood was aliquoted into 96 well plates pretreated with Syk kinase inhibitor H and incubated at 37° C. in CO2 incubation bags. After 48 hours of incubation, the cultures were processed and analyzed by PCR.

**Q.** Which results are given for `COc1ccc(-c2cc3nccn3c(NC3N=CC=CC3C(N)=O)n2)cc1OC` (centres unmarked) [Syk kinase inhibitor IV]?
**A.** parasitemia level as % of the initial level ([2]; 10 μM): ~80%; effect on level of parasitemia during second cycle (re-infection) [2]: significantly dropped the level of parasitemia; effect on level of parasitemia during first parasite cycle [2]: did not cause changes of parasitemia

**Q.** With `Cc1ccc(NC(=O)c2ccc(CN3CCNCC3)cc2)cc1Nc1nccc(-c2cccnc2)n1` [N-desmethyl derivative] as the molecule, how does the “plasma AUC of metabolite as % of the AUC for imatinib” value ([3]; humans) read?
**A.** about 15%

**Q.** What about the elimination half-life ([3]; oral administration in healthy volunteers) of the same molecule?
**A.** ~40 h

**Q.** With `COc1ccc2c(c1)c(C=C1C(=O)Nc3ccc(S(N)(=O)=O)cc31)cn2CCCO` [Compd 18] as the molecule, how does the “Solubility” value [1] read?
**A.** <0.1 mg·L

**Q.** For `Cc1ccc(NC(=O)c2ccc(CN3CCN(C)CC3)cc2)cc1Nc1nccc(-c2cccnc2)n1` [Imatinib mesylate, 4-[(4-Methyl-1-piperazinyl)methyl]-N-[4-methyl-3-[[4-(3-pyridinyl)-2-pyrimidinyl]amino]-phenyl]benzamide methanesulfonate], which “parasitemia of infected patient blood” value [4] is on record?
**A.** effective at reducing the parasitemia

**Q.** What about the “band 3 tyrosine phosphorylation” value [5] of the same molecule?
**A.** completely inhibited

**Q.** And the “parasitemia during the first cycle” value ([6]; first 44 hours, added 20 hours after start)?
**A.** did not cause significant changes in parasitemia

**Q.** And the “re-infection at the second cycle” value ([6]; higher concentrations)?
**A.** fail to reinfect healthy erythrocytes

**Q.** What about the “viability after 4 cycles of growth” value ([6]; higher concentrations) of the same molecule?
**A.** remain nonviable

**Q.** What about the “effect on parasite cycles” value ([6]; starting at 8 μM) of the same molecule?
**A.** able to delay the cycles of the parasite

**Q.** What about the “time post-dose at which Cmax is achieved” value ([3]; oral administration) of the same molecule?
**A.** 2 to 4 h

**Q.** What about the “parasite development in blood smears” value ([7]; 8 μM, up to 121 hour) of the same molecule?
**A.** able to delay the lifecycle of the parasite

**Q.** And the “parasite morphology in blood smears” value ([7]; 10 μM, listed as Gleevec, methanesulfonate)?
**A.** immature trophs from the first cycle that have not matured; also recorded: merozoites stuck or trapped inside the RBCs that cannot egress; also recorded: pyknotic parasites, or dead parasites in condensed form

**Q.** With `NCCNc1ncc(C(N)=O)c(Nc2cccc(C(F)(F)F)c2)n1` [Syk kinase inhibitor II, 2-(2-Aminoethylamino)-4-(3-trifluoromethylanilino)-pyrimidine-5-carboxamide] as the molecule, how does the “parasitemia of infected patient blood” value [4] read?
**A.** completely eliminating parasitemia

**Q.** And the “maximum level of tyrosine phosphorylated band 3 (relative to 2 mM vanadate)” value [8]?
**A.** ~35%

**Q.** What about the “parasitemia level as % of the initial level” value ([2]; 1 μM) of the same molecule?
**A.** ~80%

**Q.** And the “inhibition of parasite re-infection” value ([2]; 1 μM, added at 40 and 48 hours post initial infection)?
**A.** little impact

**Q.** What about the “parasitemia level as % of the initial level” value ([2]; 10 μM) of the same molecule?
**A.** ~80%

**Q.** What about the inhibition at 1 µM ([2]; Plasmodium falciparum, 1 μM, added 24 hours after the initial infection, read-out: inhibition of parasite re-infection) of the same molecule?
**A.** ~100%

**Q.** What about the “effect on level of parasitemia during second cycle (re-infection)” value [2] of the same molecule?
**A.** significantly dropped the level of parasitemia

**Q.** And the “effect on level of parasitemia during first parasite cycle” value [2]?
**A.** no effect

**Q.** What about the “effect when culture is treated prior to infection with normal merozoites” value ([2]; pre-treatment of new culture) of the same molecule?
**A.** no effect in blocking the parasitemia

**Q.** What about the “inhibition of vesiculation vs untreated parasite cultures” value [9] of the same molecule?
**A.** ~50%

**Q.** And the IC50 ([10]; Homo sapiens, sample pre-treatment, parasitemia 0.1%, read-out: IC50 Syk kinase inhibitor II)?
**A.** < 600 nM

**Q.** And the “elimination of parasites in malaria infected blood” value ([10]; pre- and post-artemisinin treatment)?
**A.** completely eliminate parasites
